The values that follow come from publication PMC4385927 (Cell Death & Disease, 2015).

Structures are written as SMILES. Read-outs that look alike come from different tables or passages of the source.

For data set [1], the system named is AR42j rat pancreatic acinar cells. Format: cell-based.
The subject of data set [2] is CHO cells expressing a luciferase reporter construct under control of the CHOP promoter. Briefly: CHOP::luciferase assay. Conditions: 5 μg/ml tunicamycin 6 h; ISRIB 1 μM, GSK2606414 20 μM; n=9. Format: cell-based. The method, then:
AR42j cells were cultured in DMEM supplemented with 10% Fetal calf serum (FetalClone II, Thermo Scientific, Loughborough, UK), 2 mM l-glutamine, 1 × Penicillin/Streptomycin and 1 × non-essential amino-acid solution and were maintained at 37 °C with 5% CO2. CHO-KI CHOP::luciferase cells were cultured in DMEM/F12(Ham) (Gibco, Paisley, UK) supplemented with 10% Fetal calf serum, 2 mM L-glutamine and 1 × Penicillin/Streptomycin, and were maintained at 37 °C with 5% CO2.
CHO::KI cells stably transfected with a CHOP::luciferase reporter[27] were plated at a density of 1 × 10^5 per well in a six-well plate and left to grow overnight. Cells were treated for 6 h with 5 μg/ml tunicamycin or vehicle only (100% DMSO) and then extracted using the Steady-Glo luciferase assay system (Promega) before being quantified using the Glomax 96 microplate luminometer (Promega). ISRIB and GSK2606414 were incubated with 5 μg/ml tunicamycin for 6 h at 1 or 20 μM, respectively, before assaying as above.

The conditions of data set [3]: mouse, in vivo.
For data set [4], the system named is global protein synthesis rates. To be noted: mouse; cited from earlier work.
The conditions of data set [5]: cited from earlier work.
The nature of data set [6]: Plasma and brain concentration of trans-ISRIB by LC-MS/MS after single intraperitoneal injection. In kind it is in vivo. To be noted: wild-type mice; for Brain mean ±S.D. / Plasma mean ±S.D.: n=3. The method, then:
We synthesized ISRIB as described,[22] and confirmed penetration of the blood–brain barrier and measured mean brain:plasma ratios at various doses in wild-type mice. Intra-peritoneal administration of 0.25 mg/kg of trans-ISRIB (henceforth termed simply ISRIB), as used by Sidrauski et al.[22] to enhance memory in mice, gave a favorable pharmacokinetic profile (Table 1), so this dose was used for treatment.
Blood and brain tissue were collected 8 or 24 h after dosing from mice treated with one doses of 0.25, 2.5 or 5 mg/kg trans-ISRIB, or vehicle. Blood plasma (up 0.2 ml, exact volume measured) was diluted with water to 0.2 ml and extracted with 0.4 ml of chloroform/methanol 2 : 1. After vortex mixing (10 min) and centrifugation (10 000 g, 10 min), the lower layer was dried with vacuum centrifugation and reconstituted in 50 μl of methanol. Brain tissue (one complete half, about 0.25 g weighed exactly) was homogenized in 0.5 ml of chloroform/methanol 2 : 1 and further processed exactly as the plasma samples. ISRIB quantitative analysis (using external standards) was performed by LC-MS/MS using a 4000 QTRAP mass spectrometer (Applied Biosystems, Foster City, CA, USA) equipped with a turbo ion source and LC series 10 AD VP (Shimadzu). The mobile phase was a water/acetonitrile gradient modified with 0.1% formic acid using a Agilent Poroshell 120 SB-C18 2.1 × 50 mm^2 (2.7 μm), which was maintained at 40 °C. LC-MS/MS multiple reaction monitoring used a precursor ion of mass/charge ratio (m/z) 452 and a product ion of m/z 265 in positive electrospray ionization mode for trans-ISRIB. Data analysis was performed with Analyst 1.4.1 in the quantitative mode.

For data set [7], the system named is global protein synthesis rates. Also on record: species or system mice. Conditions: mouse, in vivo, ip, 0.25 mg/kg.
For a further data set, the system named is ATF4. Also on record: species or system mice. Conditions: mouse, in vivo, ip, 0.25 mg/kg.
The subject of the next data set is eIF2α-P. Also on record: species or system mice. To be noted: mouse, in vivo, ip, 0.25 mg/kg.
Another data set concerns total PrP and PrP^Sc. More on the design: species or system mice. Conditions: mouse, in vivo.
For data set [8], the system named is Rocky Mountain Laboratory (RML) prions. In kind it is in vivo, mice.
The next data set is described as follows: Solubility (statement). In kind it is physicochemical.
The mark [9] stands for this setting: single i.p. dose 0.25 mg/kg, 8 h.
[10] abbreviates: single i.p. dose 0.25 mg/kg, 24 h.
The mark [11] stands for this setting: single i.p. dose 2.5 mg/kg, 8 h.
Where [12] appears, read: single i.p. dose 2.5 mg/kg, 24 h.
The mark [13] stands for this setting: prion-infected mice, ISRIB 0.25 mg/kg i.p. daily from 7 w.p.i., vehicle 9/9.

As for `Cn1cc(-c2ccc3c(c2)CCN3C(=O)Cc2cccc(C(F)(F)F)c2)c2c(N)ncnc21` [GSK2606414, 7-methyl-5-(1-{[3-(trifluoromethyl)phenyl]acetyl}-2,3-dihydro-1H-indol-5-yl)-7H-p yrrolo[2,3-d]pyrimidin-4-amine], the “protein synthesis (translation) rates restored in vitro, % of control levels” value in data set [1] (thapsigargin-treated AR42j cells, Figures 6a and b) was determined as 90%. The “tunicamycin-induced CHOP induction (relative luminescence)” value in [2] is listed as “completely inhibited”. For the same compound, the “reduction in pancreatic weight” value in data set [3] (Tg37+/-, po, 50 mg/kg) is reported as ~ 50%. Besides, in data set [3], the blood glucose levels entry is “mildly but significantly elevated” and the “pancreas histology (H&E sections)” value is “extensive destruction of exocrine acinar pancreatic tissue”. Further, in data set [4], the “recovery of protein synthesis rates in vivo” value is given as ~ 100%. In data set [5], the “toxicity of GSK2606414 treatment in prion-diseased mice” value is “weight loss and mild hyperglycemia”.
Regarding `O=C(COc1ccc(Cl)cc1)N[C@H]1CC[C@H](NC(=O)COc2ccc(Cl)cc2)CC1` [ISRIB], in [6] (setting [9]), the “Mean ratio brain: plasma” value came to 0.54, the “Brain mean ±S.D.” value amounted to 186.9 ± 46.8 ng/g and the “Plasma mean ±S.D.” value is 345.3 ± 44.7 ng/mL. Besides, in [6] (setting [10]), the “Mean ratio brain: plasma” value is 1.62, the “Brain mean ±S.D.” value came out at 16.0 ± 1.6 ng/g and the “Plasma mean ±S.D.” value stood at 9.9 ± 1.0 ng/mL. In data set [6] (setting [11]), the “Mean ratio brain: plasma” value stood at 0.35, the “Brain mean ±S.D.” value amounted to 254.6 ± 70.3 ng/g and the “Plasma mean ±S.D.” value stood at 721.6 ± 60.1 ng/mL. For the same compound, in [6] (setting [12]), the “Mean ratio brain: plasma” value is reported as 0.9, the “Brain mean ±S.D.” value was 39.7 ± 12.6 ng/g and the “Plasma mean ±S.D.” value came to 44.1 ± 11.6 ng/mL. Further, in data set [6] (single i.p. dose 5 mg/kg, 8 h), the “Mean ratio brain: plasma” value is reported as 0.43, the “Brain mean ±S.D.” value is 160.3 ± 17.6 ng/g and the “Plasma mean ±S.D.” value amounted to 369.7 ± 114.4 ng/mL. Besides, in data set [6] (single i.p. dose 5 mg/kg, 24 h), the “Mean ratio brain: plasma” value was 0.91, the “Brain mean ±S.D.” value was 64.6 ± 9.2 ng/g and the “Plasma mean ±S.D.” value was 70.9 ± 30.6 ng/mL. In addition, the “global protein synthesis rates, % of levels seen in uninfected controls” value in data set [7] was ~ 70%. In addition, the “levels of ATF4 (hippocampus)” value with ATF4 is listed as “reduced levels of ATF4 markedly”. For the same compound, in the data set with eIF2α-P, the “eIF2α-P levels (hippocampus)” value is recorded as “unchanged”. In addition, the “levels of total PrP and PrP^Sc” value in the data set with total PrP and PrP^Sc is given as “does not affect”. The “animals that developed confirmatory signs of prion disease by 12 w.p.i.” value in data set [8] (clinical observation, vehicle 9/9) is 0/12. The “survival in prion-infected mice” value in data set [8] (n=12, vehicle 84±3 days (n=9), killed because of loss of 20% of body weight) stood at 96±4 days post infection. In addition, the “Confirmatory signs: Dragging of limbs (front/hind) (mice affected/total)” value in data set [8] (prion-infected mice, ISRIB 0.25 mg/kg i.p. daily from 7 w.p.i., vehicle 2/9) is given as 0/12. The “Confirmatory signs: Sustained hunched posture (mice affected/total)” value in data set [8] (prion-infected mice, ISRIB 0.25 mg/kg i.p. daily from 7 w.p.i., vehicle 3/9) is reported as 0/12. In addition, the “Early indicator signs: Unsustained hunched posture (mice affected/total)” value in data set [8] (prion-infected mice, ISRIB 0.25 mg/kg i.p. daily from 7 w.p.i., vehicle 4/9) is on record as 0/12. Further, the “Confirmatory signs: Impairment of righting reflex (mice affected/total)” value in [8] (prion-infected mice, ISRIB 0.25 mg/kg i.p. daily from 7 w.p.i., vehicle 5/9) is 0/12. The “Early indicator signs: Hind limb clasping (mice affected/total)” value in [8] (prion-infected mice, ISRIB 0.25 mg/kg i.p. daily from 7 w.p.i., vehicle 8/9) is 7/12. Moreover, in [8] (setting [13]), the “Early indicator signs: Mild loss of coordination (mice affected/total)” value is reported as 7/12, the “Early indicator signs: Rigid tail (mice affected/total)” value is 7/12 and the “Scrapie incubation: Number of animals succumbing to prion disease” value is on record as 0/12. The “neuronal loss in the hippocampus (neuropathological examination, H&E)” value in data set [8] (prion-infected mice, ISRIB vs vehicle) is given as “prevented neuronal loss”. Also, the “protein synthesis (translation) rates restored in vitro, % of control levels” value in data set [1] is recorded as ~ 50%. For the same compound, in data set [2], the “tunicamycin-induced CHOP induction (relative luminescence)” value was “only partially reduced”. In “Solubility (statement)”, the solubility entry is recorded as “high insolubility”. In data set [3], the blood glucose levels result is given as “unaffected”, the “loss of body weight at which animals had to be killed” value is recorded as 20%, the “pancreas histology (H&E sections)” value is on record as “histologically normal” and the pancreatic weights entry is “normal”.
